Experimental data: patent US20060241149A1, “Chemical compounds” (priority 2002, published 2006)
Structures can show the parent of a compound that is named as a salt.

Experiments:
[1] = biological target: T1, TIE2 kinase (Homo sapiens, UniProt Q02763); test: TIE2 kinase inhibition; format: biochemical
T1 construct: made in house; host or cells: baculovirus expression (insect cells)
Excerpt: TIE-2 Enzyme Assay (TIE2-E)
The TIE-2 enzyme assay uses the LANCE method (Wallac) and GST-TIE2, baculovirus expressed recombinant constructs of the intracellular domains of human TIE2 (amino acids 762-1104, GenBank Accession #L06139) tagged by GST). The method measures the ability of the purified enzymes to catalyse the transfer of the γ-phosphate from ATP onto tyrosine residues in a biotinylated synthetic peptide, D1-15 (biotin-C6-LEARLVAYEGWVAGKKKamide). This peptide phosphorylation is detected using the following procedure: for enzyme preactivation, GST-TIE2 is incubated for 30 mins at room temperature with 2 mM ATP, 5 mM MgCl2 and 12.5 mM DTT in 22.5 MM HEPES buffer (pH7.4). Preactivated GST-TIE2 is incubated for 30mins at room temperature in 96 well plates with 1 uM D1-15 peptide, 80 uM ATP, 10 mM MgCl2, 0.1 mg/ml BSA and the test compound (diluted from a 10 mM stock in DMSO, final DMSO concentration is 2.4%) in 1 mM HEPES (pH7.4). The reaction is stopped by the addition of EDTA (final concentration 45 mM). Streptavidin linked-APC (allophycocyanin, Molecular Probe) and Europium-labeled anti-phosphorylated tyrosine antibody (Wallac) are then added at the final concentration of 17 ug/well and 2.1 ug/well, respectively. The APC signal is measured using an ARVO multilabel counter. (Wallac Berthold Japan). The percent inhibition of activity is calculated relative to blank control wells. The concentration of test compound that inhibits 50% of activity (IC50) is interpolated using nonlinear regression (Levernberg-Marquardt) and the equation, y=Vmax (1−x/(K+x))+Y2, where “K” is equal to the IC50. The IC50 values are converted to pIC50 values, i.e., -log IC50 in Molar concentration.
TIE-2 Enzyme Assay (TIE2-E2
The TIE-2 enzyme assay uses the LANCE method (Wallac) and GST-TIE2, baculovirus-expressed recombinant constructs of the intracellular domains of human TIE2 (amino acids 762-1104, GenBank Accession #L06139) tagged by GST). The method measures the ability of the purified enzymes to catalyse the transfer of the γ-phosphate from ATP onto tyrosine residues in a biotinylated synthetic peptide, D1-15 (biotin-C6-LEARLVAYEGWVAGKKKamide). This peptide phosphorylation is detected using the following procedure: for enzyme preactivation, GST-TIE2 is incubated for 2 hours at room temperature with 80 μM ATP, 10 mM MgCl2, 0.1 mg/ml BSA, 0.01% Tween 20 and 1 mM DTT in 100 mM HEPES buffer (pH7.4). […] The APC signal is measured using an Wallac Multilabel 1420 counter. […] The percent inhibition of activity is calculated relative to blank control wells. […]
Tie2 Fluorescence Polarization Kinase Activity Assay: (TIE2-FP) […]

[2] = biological target: Raf kinase; test: Raf kinase inhibition; format: biochemical

T1 sequence (Q02763 762-1104): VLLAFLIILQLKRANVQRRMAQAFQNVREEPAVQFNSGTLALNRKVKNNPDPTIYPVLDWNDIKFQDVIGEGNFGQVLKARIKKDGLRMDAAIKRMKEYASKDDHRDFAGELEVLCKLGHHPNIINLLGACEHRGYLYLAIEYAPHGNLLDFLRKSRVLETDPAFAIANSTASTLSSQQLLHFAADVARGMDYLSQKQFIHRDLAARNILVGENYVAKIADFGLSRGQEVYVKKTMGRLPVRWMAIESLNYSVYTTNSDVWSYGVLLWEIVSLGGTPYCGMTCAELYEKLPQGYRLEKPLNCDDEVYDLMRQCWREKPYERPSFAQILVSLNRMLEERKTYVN

Row | IC50 [1] [nM] | IC50 [2] [nM] | SMILES
1 | < 250 |  | CNC(=O)c1cc(Oc2ccc3c(c2)CCN3C(=O)Nc2cccc(C(F)(F)F)c2)ccn1 [Example 3, 5-(2-Methylcarbamoyl-pyridin-4-yloxy)-2,3-dihydro-indole-1-carboxylic acid(3′-trifluoromethyl-phenyl)-amide]
2 | < 250 |  | CNC(=O)c1cc(Oc2ccc3c(c2)CCN3C(=O)Nc2ccc(F)c(C(F)(F)F)c2)ccn1 [Example 4, 5-(2-Methylcarbamoyl-pyridin-4-yloxy)-2,3-dihydro-indole-1-carboxylic acid(4′-fluoro-3′-trifluoromethyl-phenyl)-amide]
3 | < 250 |  | CNC(=O)c1cc(Oc2ccc3c(c2)CCN3C(=O)Nc2cc(C(F)(F)F)cc(C(F)(F)F)c2)ccn1 [Example 6, 5-(2-Methylcarbamoyl-pyridin-4-yloxy)-2,3-dihydro-indole-1-carboxylic acid(bis-3′,5′-trifluoromethylphenyl)-amide]
4 | < 250 |  | CNC(=O)c1cc(Oc2ccc3c(c2)CCN3C(=O)Nc2cc(C(C)(C)C)on2)ccn1 [Example 7, 5-(2-Methylcarbamoyl-pyridin-4-yloxy)-2,3-dihydro-indole-1-carboxylic acid(5-tert-butyl-isoxazol-3-yl)-amide trifluoroacetate]
5 |  | < 250 | CNC(=O)c1cc(Oc2ccc3c(c2)CCN3C(=O)Nc2ccc(Cl)c(C(F)(F)F)c2)ccn1 [Example 8, 5-(2-Methylcarbamoyl-pyridin-4-yloxy)-2,3-dihydro-indole-1-carboxylic acid(4′-chloro-3′-trifluoromethyl-phenyl)-amide]
